The source of these data is ChEMBL document CHEMBL1269000, “Synthesis and biological evaluation of [D-lysine]8cyclosporin A analogs as potential anti-HCV agents” (Bioorg Med Chem Lett, 2010).

Bounds are passed on as bounds.

Data set [1] has as its target Peptidyl-prolyl cis-trans isomerase A (Homo sapiens, UniProt P62937). Kind of data set: Binding affinity to cyclophilin A by ELISA. In general terms: ELISA stands for enzyme-linked immunosorbent assay.
Data set [2] deals with Peptidyl-prolyl cis-trans isomerase B (Homo sapiens, UniProt P23284). Briefly: Binding affinity to cyclophilin B by ELISA.
Sequence of Peptidyl-prolyl cis-trans isomerase B (P23284 whole entry): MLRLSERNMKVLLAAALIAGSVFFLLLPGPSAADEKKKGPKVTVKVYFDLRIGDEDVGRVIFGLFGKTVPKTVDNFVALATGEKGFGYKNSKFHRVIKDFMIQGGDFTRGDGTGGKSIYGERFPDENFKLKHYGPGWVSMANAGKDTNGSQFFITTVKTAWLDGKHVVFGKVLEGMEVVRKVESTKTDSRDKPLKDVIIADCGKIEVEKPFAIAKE
The test system of another data set is Jurkat. Kind of data set: Immunosuppressive activity against human Jurkat cells assessed as inhibition of phytohemagglutinin-M/phorbol myristate acetate-induced IL2 production. In kind it is cell-based.
The subject of the next data set is Hepatitis C virus. Kind of data set: Antiviral activity against HCV after 72 hrs by stable luciferase reporter gene assay. In kind it is functional, organism-based, Hepacivirus hominis. A general note: In a reporter assay the amount or activity of a reporter protein is the signal.
Data set [3] is described as follows: Cytotoxicity against human HuH7 cells assessed as release of lactate dehydrogenase. In kind it is cell-based, Huh-7. The note with it: for IC50: Homo sapiens, Huh-7; for IC90: human, HuH7 cells.

Sequence of Peptidyl-prolyl cis-trans isomerase A (P62937 whole entry): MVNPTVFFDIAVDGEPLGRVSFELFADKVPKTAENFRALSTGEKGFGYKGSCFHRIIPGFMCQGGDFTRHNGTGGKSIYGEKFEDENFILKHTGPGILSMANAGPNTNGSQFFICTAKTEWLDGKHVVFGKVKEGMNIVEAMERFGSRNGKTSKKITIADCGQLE

In the case of `C/C=C/C[C@@H](C)[C@@H](O)[C@H]1C(=O)N[C@@H](CC)C(=O)N(C)CC(=O)N(C)[C@@H](CC(C)C)C(=O)N[C@@H](C(C)C)C(=O)N(C)[C@@H](CC(C)C)C(=O)N[C@@H](C)C(=O)N[C@H](CNC(=O)OC(C)(C)C)C(=O)N(C)[C@@H](CC(C)C)C(=O)N(C)[C@@H](CC(C)C)C(=O)N(C)[C@@H](C(C)C)C(=O)N1C`, the 50% inhibitory concentration (IC50) (commonly the concentration that gives 50% inhibition) in data set [1] turned out to be 83.5 nM; in data set [2], 66.8 nM; in data set [3], 1720 nM. In addition, the EC50 (usually the concentration at which the effect is half-maximal) stood at 50 nM with Jurkat and 200 nM with Hepatitis C virus. The EC90 – broadly, the concentration needed for an effect of 90% – in the data set with Hepatitis C virus stood at 480 nM. Also, the concentration for an effect of 90% (IC90) (commonly the point of the concentration-response curve where the effect stands at 90%) in data set [3] is > 10000 nM.
On to `C/C=C/C[C@@H](C)[C@@H](O)[C@H]1C(=O)N[C@@H](CC)C(=O)N(C)CC(=O)N(C)[C@@H](CC(C)C)C(=O)N[C@@H](C(C)C)C(=O)N(C)[C@@H](CC(C)C)C(=O)N[C@@H](C)C(=O)N[C@H](CCNC(=O)C(C)(C)C)C(=O)N(C)[C@@H](CC(C)C)C(=O)N(C)[C@@H](CC(C)C)C(=O)N(C)[C@@H](C(C)C)C(=O)N1C`, for which the half-inhibitory concentration (IC50) is 31.2 nM in data set [1], 26.1 nM in data set [2] and 2020 nM in data set [3]. Also, the EC50 is 22 nM in the data set with Jurkat and 140 nM in the data set on Hepatitis C virus. In the data set with Hepatitis C virus, this molecule came in with a concentration for an effect of 90% (EC90) of 360 nM. For the same molecule, in data set [3], the IC90 was > 10000 nM.
With `C/C=C/C[C@@H](C)[C@@H](O)[C@H]1C(=O)N[C@@H](CC)C(=O)N(C)CC(=O)N(C)[C@@H](CC(C)C)C(=O)N[C@@H](C(C)C)C(=O)N(C)[C@@H](CC(C)C)C(=O)N[C@@H](C)C(=O)N[C@H](CCCNC(=O)C(C)(C)C)C(=O)N(C)[C@@H](CC(C)C)C(=O)N(C)[C@@H](CC(C)C)C(=O)N(C)[C@@H](C(C)C)C(=O)N1C`, the results for the IC50 in data set [1], in data set [2] and in data set [3] were 26.7 nM, 30.5 nM and 2070 nM, respectively. Further, the EC50 in the data set with Jurkat turned out to be 21 nM; in the data set on Hepatitis C virus, 120 nM. This molecule also yielded a 90% effect concentration (EC90) in the data set with Hepatitis C virus of 310 nM. Further, the IC90 in data set [3] was > 10000 nM.
In the case of `C/C=C/C[C@@H](C)[C@@H](O)[C@H]1C(=O)N[C@@H](CC)C(=O)N(C)CC(=O)N(C)[C@@H](CC(C)C)C(=O)N[C@@H](C(C)C)C(=O)N(C)[C@@H](CC(C)C)C(=O)N[C@@H](C)C(=O)N[C@H](CCCCNC(=O)C(C)(C)C)C(=O)N(C)[C@@H](CC(C)C)C(=O)N(C)[C@@H](CC(C)C)C(=O)N(C)[C@@H](C(C)C)C(=O)N1C`, the IC50 in data set [1] is 22.8 nM; in data set [2], 20.6 nM; in data set [3], 2560 nM. Further, the EC50 in the data set on Jurkat amounted to 121 nM; with Hepatitis C virus, 160 nM. In addition, the 90% effect level in the data set on Hepatitis C virus (EC90) was put at 300 nM. The 90% effect concentration (IC90) in data set [3] is > 10000 nM.
For the molecule `C/C=C/C[C@@H](C)[C@@H](O)[C@H]1C(=O)N[C@@H](CC)C(=O)N(C)CC(=O)N(C)[C@@H](CC(C)C)C(=O)N[C@@H](C(C)C)C(=O)N(C)[C@@H](CC(C)C)C(=O)N[C@@H](C)C(=O)N[C@H](CC#N)C(=O)N(C)[C@@H](CC(C)C)C(=O)N(C)[C@@H](CC(C)C)C(=O)N(C)[C@@H](C(C)C)C(=O)N1C`, the half-maximal inhibitory concentration (IC50) in data set [1] is 9.12 nM; in data set [2], 9.45 nM; in data set [3], 2820 nM. The EC50 in the data set on Jurkat is 5.1 nM; with Hepatitis C virus, 40 nM. The 90% effect concentration (EC90) in the data set on Hepatitis C virus is 140 nM. Besides, in data set [3], the IC90 was > 10000 nM.
On to `C/C=C/C[C@@H](C)[C@@H](O)[C@H]1C(=O)N[C@@H](CC)C(=O)N(C)CC(=O)N(C)[C@@H](CC(C)C)C(=O)N[C@@H](C(C)C)C(=O)N(C)[C@@H](CC(C)C)C(=O)N[C@@H](C)C(=O)N[C@H](CCC#N)C(=O)N(C)[C@@H](CC(C)C)C(=O)N(C)[C@@H](CC(C)C)C(=O)N(C)[C@@H](C(C)C)C(=O)N1C`, for which the values for the 50% inhibitory concentration (IC50) in data set [1], in data set [2] and in data set [3] were 23 nM, 24.2 nM and 2370 nM, respectively. The 50% effective concentration (EC50) in the data set with Jurkat was 12 nM; in the data set with Hepatitis C virus, 100 nM. In the data set on Hepatitis C virus, the EC90 stood at 270 nM. The 90% effect concentration (IC90) in data set [3] was > 10000 nM.
Turning to `C/C=C/C[C@@H](C)[C@@H](O)[C@H]1C(=O)N[C@@H](CC)C(=O)N(C)CC(=O)N(C)[C@@H](CC(C)C)C(=O)N[C@@H](C(C)C)C(=O)N(C)[C@@H](CC(C)C)C(=O)N[C@@H](C)C(=O)N[C@H](CN)C(=O)N(C)[C@@H](CC(C)C)C(=O)N(C)[C@@H](CC(C)C)C(=O)N(C)[C@@H](C(C)C)C(=O)N1C`, the 50% inhibitory concentration (IC50) in data set [1] amounted to 103 nM; in data set [2] it was 79.7 nM; in data set [3], 4610 nM. Also, the values for the concentration for a half-maximal effect (EC50) with Jurkat and with Hepatitis C virus were 13 nM and 300 nM, respectively. The EC90 in the data set on Hepatitis C virus amounted to 820 nM. Moreover, the concentration for an effect of 90% (IC90) in data set [3] was > 10000 nM.
Turning to `C/C=C/C[C@@H](C)[C@@H](O)[C@H]1C(=O)N[C@@H](CC)C(=O)N(C)CC(=O)N(C)[C@@H](CC(C)C)C(=O)N[C@@H](C(C)C)C(=O)N(C)[C@@H](CC(C)C)C(=O)N[C@@H](C)C(=O)N[C@H](CCN)C(=O)N(C)[C@@H](CC(C)C)C(=O)N(C)[C@@H](CC(C)C)C(=O)N(C)[C@@H](C(C)C)C(=O)N1C`, the half-maximal inhibitory concentration (IC50) is 218 nM in data set [1], 151 nM in data set [2] and 5300 nM in data set [3]. For the same molecule, the results for the EC50 in the data set with Jurkat and in the data set on Hepatitis C virus were 90 nM and 660 nM, respectively. In the data set with Hepatitis C virus, it took 2350 nM to reach the 90% level (EC90). For the same molecule, in data set [3], the concentration for an effect of 90% (IC90) was > 10000 nM.
`C/C=C/C[C@@H](C)[C@@H](O)[C@H]1C(=O)N[C@@H](CC)C(=O)N(C)CC(=O)N(C)[C@@H](CC(C)C)C(=O)N[C@@H](C(C)C)C(=O)N(C)[C@@H](CC(C)C)C(=O)N[C@@H](C)C(=O)N[C@H](CCCN)C(=O)N(C)[C@@H](CC(C)C)C(=O)N(C)[C@@H](CC(C)C)C(=O)N(C)[C@@H](C(C)C)C(=O)N1C`: the IC50 in data set [1] was 662 nM; in data set [2], 1580 nM; in data set [3], > 10000 nM. Moreover, the figures for the concentration giving a half-maximal response (EC50) with Jurkat and in the data set with Hepatitis C virus were 111 nM and 1890 nM, respectively. This molecule displayed an EC90 in the data set with Hepatitis C virus of 6740 nM. In addition, the 90% effect concentration (IC90) in data set [3] is > 10000 nM.
With `C/C=C/C[C@@H](C)[C@@H](O)[C@H]1C(=O)N[C@@H](CC)C(=O)N(C)CC(=O)N(C)[C@@H](CC(C)C)C(=O)N[C@@H](C(C)C)C(=O)N(C)[C@@H](CC(C)C)C(=O)N[C@@H](C)C(=O)N[C@H](CCCCN)C(=O)N(C)[C@@H](CC(C)C)C(=O)N(C)[C@@H](CC(C)C)C(=O)N(C)[C@@H](C(C)C)C(=O)N1C`, the 50% inhibitory concentration (IC50) is 11.1 nM in data set [1], 12.7 nM in data set [2] and > 10000 nM in data set [3]. Besides, the figures for the concentration giving a half-maximal response (EC50) in the data set with Jurkat and in the data set with Hepatitis C virus were 94 nM and 1000 nM, respectively. Moreover, the 90% effect level in the data set on Hepatitis C virus (EC90) was put at 2850 nM. For the same molecule, the IC90 in data set [3] is > 10000 nM.
Regarding `C/C=C/C[C@@H](C)[C@@H](O)[C@H]1C(=O)N[C@@H](CC)C(=O)N(C)CC(=O)N(C)[C@@H](CC(C)C)C(=O)N[C@@H](C(C)C)C(=O)N(C)[C@@H](CC(C)C)C(=O)N[C@@H](C)C(=O)N[C@H](C)C(=O)N(C)[C@@H](CC(C)C)C(=O)N(C)[C@@H](CC(C)C)C(=O)N(C)[C@@H](C(C)C)C(=O)N1C` [CYCLOSPORINE], the EC50 with Jurkat turned out to be 6.7 nM. For the same molecule, in the data set with Hepatitis C virus, the EC50 came out at 370 nM and the 90% effect concentration (EC90) amounted to 910 nM.
For the molecule `C/C=C/C[C@@H](C)[C@@H](O)[C@H]1C(=O)N[C@@H](CC)C(=O)N(C)[C@H](SCCN(C)C)C(=O)N(C)[C@@H](CC(C)(C)O)C(=O)N[C@@H](C(C)C)C(=O)N(C)[C@@H](CC(C)C)C(=O)N[C@@H](C)C(=O)N[C@H](C)C(=O)N(C)[C@@H](CC(C)C)C(=O)N(C)[C@@H](CC(C)C)C(=O)N(C)[C@@H](C(C)C)C(=O)N1C` [SCY 635], the IC50 was 10.3 nM in data set [2] and > 10000 nM in data set [3]. Further, the 50% effective concentration (EC50) in the data set with Jurkat came out at 4210 nM; in the data set with Hepatitis C virus it was 50 nM. This molecule also registered an EC90 in the data set with Hepatitis C virus of 240 nM. Moreover, the IC90 in data set [3] is > 10000 nM.
